Reference: ChEMBL document CHEMBL1287678, “5-{2-[4-(2-methyl-5-quinolinyl)-1-piperazinyl]ethyl}-2(1H)-quinolinones and 3,4-dihydro-2(1H)-quinolinones: dual-acting 5-HT1 receptor antagonists and serotonin reuptake inhibitors. Part 3” (Bioorg Med Chem Lett, 2010)
pEC50, pKi: −log10 of the molar value.

What was measured:
[1] = Ratio of drug level in brain to blood in rat at 0.5 mg/kg, iv and 1 mg/kg, po; assay type: ADME, organism-based; details: brain / whole blood
[2] = system: Liver microsomes; assay: Intrinsic clearance in human liver microsomes; assay type: ADME, Microsome
[3] = biological target: T1, 5-hydroxytryptamine receptor 1B (Homo sapiens, UniProt P28222); assay: Antagonist activity at human 5-HT1B receptor expressed in CHO cells assessed as inhibition of GTPgammaS binding by scintillation proximity assay; assay type: functional, cell-based
T1 sequence (P28222 whole entry): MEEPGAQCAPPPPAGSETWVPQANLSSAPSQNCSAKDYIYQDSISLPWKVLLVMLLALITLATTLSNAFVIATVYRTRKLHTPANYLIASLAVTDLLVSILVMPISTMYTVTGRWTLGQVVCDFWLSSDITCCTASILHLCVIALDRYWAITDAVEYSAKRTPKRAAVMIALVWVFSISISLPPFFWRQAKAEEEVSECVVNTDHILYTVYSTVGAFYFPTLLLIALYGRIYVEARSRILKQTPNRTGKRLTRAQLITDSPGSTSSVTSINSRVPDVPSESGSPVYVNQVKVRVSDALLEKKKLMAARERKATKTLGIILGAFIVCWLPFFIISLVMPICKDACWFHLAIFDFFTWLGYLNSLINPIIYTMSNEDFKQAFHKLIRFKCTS

[4] = Half life in rat at 0.5 mg/kg, iv and 1 mg/kg, po; assay type: ADME, organism-based; details: in vivo
[5] = Oral bioavailability in rat at 1 mg/kg; assay type: ADME, organism-based; details: in vivo
[6] = biological target: Sodium-dependent serotonin transporter (Homo sapiens, UniProt P31645); assay: Displacement of [3H]-citalopram in human SERT expressed in LLCPK cells by filtration assay; assay type: cell-based
Chain of Sodium-dependent serotonin transporter (P31645 whole entry): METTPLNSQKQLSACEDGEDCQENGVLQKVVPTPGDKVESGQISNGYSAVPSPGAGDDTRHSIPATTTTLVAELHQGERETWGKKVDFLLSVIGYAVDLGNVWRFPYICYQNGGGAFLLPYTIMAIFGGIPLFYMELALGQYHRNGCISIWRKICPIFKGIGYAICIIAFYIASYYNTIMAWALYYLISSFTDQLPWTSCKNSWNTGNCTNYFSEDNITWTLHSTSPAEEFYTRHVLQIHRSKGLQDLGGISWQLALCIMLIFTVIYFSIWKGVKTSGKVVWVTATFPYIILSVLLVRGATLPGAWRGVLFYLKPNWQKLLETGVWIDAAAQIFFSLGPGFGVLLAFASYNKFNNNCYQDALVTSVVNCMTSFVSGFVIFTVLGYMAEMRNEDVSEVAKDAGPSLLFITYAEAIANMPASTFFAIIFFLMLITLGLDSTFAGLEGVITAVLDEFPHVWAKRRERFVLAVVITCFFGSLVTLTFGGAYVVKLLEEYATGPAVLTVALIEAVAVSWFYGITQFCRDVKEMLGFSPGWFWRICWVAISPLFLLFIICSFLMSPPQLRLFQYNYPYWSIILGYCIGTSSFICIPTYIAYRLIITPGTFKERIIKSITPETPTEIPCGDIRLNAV

[7] = biological target: T2, 5-hydroxytryptamine receptor 1A (Homo sapiens) (UniProt P08908); assay: Intrinsic activity at human 5-HT1A receptor expressed in HEK293 cells assessed as effect on GTPgammaS binding by scintillation proximity assay relative to 5HT; assay type: functional, cell-based
T2 sequence (whole entry): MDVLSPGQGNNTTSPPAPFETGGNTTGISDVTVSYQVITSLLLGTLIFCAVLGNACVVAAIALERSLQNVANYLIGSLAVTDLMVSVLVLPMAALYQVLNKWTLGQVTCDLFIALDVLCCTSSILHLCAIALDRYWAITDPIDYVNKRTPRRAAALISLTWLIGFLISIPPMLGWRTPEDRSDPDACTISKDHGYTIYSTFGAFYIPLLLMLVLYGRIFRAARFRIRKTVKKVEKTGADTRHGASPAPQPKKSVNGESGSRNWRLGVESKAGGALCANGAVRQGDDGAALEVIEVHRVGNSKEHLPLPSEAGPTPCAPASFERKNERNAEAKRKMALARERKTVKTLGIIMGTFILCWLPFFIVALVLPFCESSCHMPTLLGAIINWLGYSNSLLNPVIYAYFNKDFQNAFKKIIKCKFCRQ

[8] = Blood clearance in rat at 0.5 mg/kg, iv and 1 mg/kg, po; assay type: ADME, organism-based; details: whole blood
[9] = biological target: T3, 5-hydroxytryptamine receptor 1D (Homo sapiens, UniProt P28221); assay: Antagonist activity at human 5-HT1D receptor expressed in CHO cells assessed as inhibition of GTPgammaS binding by scintillation proximity assay; assay type: functional, cell-based
T3 sequence (P28221 whole entry): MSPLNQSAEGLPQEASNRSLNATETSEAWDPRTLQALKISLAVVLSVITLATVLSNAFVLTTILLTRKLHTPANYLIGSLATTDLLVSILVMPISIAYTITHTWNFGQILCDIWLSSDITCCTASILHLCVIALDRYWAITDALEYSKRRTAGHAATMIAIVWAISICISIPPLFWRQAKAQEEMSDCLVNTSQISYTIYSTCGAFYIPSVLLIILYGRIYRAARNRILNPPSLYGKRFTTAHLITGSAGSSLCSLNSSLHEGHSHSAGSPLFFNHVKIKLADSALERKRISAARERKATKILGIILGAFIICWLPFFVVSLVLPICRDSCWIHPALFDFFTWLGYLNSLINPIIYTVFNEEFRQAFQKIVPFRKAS

[10] = Volume of distribution at steady state in rat at 0.5 mg/kg, iv and 1 mg/kg, po; assay type: ADME, organism-based; details: in vivo, read-out: Vdss
[11] = biological target: T3, 5-hydroxytryptamine receptor 1D; assay: Intrinsic activity at human 5-HT1D receptor expressed in CHO cells assessed as effect on GTPgammaS binding by scintillation proximity assay relative to 5HT; assay type: functional, cell-based
[12] = biological target: Voltage-gated inwardly rectifying potassium channel KCNH2 (Homo sapiens, UniProt Q12809); assay: Displacement of [3H]-dofetilide in human hERG expressed in CHO cells by proximity assay; assay type: cell-based
Chain of Voltage-gated inwardly rectifying potassium channel KCNH2 (Q12809 whole entry): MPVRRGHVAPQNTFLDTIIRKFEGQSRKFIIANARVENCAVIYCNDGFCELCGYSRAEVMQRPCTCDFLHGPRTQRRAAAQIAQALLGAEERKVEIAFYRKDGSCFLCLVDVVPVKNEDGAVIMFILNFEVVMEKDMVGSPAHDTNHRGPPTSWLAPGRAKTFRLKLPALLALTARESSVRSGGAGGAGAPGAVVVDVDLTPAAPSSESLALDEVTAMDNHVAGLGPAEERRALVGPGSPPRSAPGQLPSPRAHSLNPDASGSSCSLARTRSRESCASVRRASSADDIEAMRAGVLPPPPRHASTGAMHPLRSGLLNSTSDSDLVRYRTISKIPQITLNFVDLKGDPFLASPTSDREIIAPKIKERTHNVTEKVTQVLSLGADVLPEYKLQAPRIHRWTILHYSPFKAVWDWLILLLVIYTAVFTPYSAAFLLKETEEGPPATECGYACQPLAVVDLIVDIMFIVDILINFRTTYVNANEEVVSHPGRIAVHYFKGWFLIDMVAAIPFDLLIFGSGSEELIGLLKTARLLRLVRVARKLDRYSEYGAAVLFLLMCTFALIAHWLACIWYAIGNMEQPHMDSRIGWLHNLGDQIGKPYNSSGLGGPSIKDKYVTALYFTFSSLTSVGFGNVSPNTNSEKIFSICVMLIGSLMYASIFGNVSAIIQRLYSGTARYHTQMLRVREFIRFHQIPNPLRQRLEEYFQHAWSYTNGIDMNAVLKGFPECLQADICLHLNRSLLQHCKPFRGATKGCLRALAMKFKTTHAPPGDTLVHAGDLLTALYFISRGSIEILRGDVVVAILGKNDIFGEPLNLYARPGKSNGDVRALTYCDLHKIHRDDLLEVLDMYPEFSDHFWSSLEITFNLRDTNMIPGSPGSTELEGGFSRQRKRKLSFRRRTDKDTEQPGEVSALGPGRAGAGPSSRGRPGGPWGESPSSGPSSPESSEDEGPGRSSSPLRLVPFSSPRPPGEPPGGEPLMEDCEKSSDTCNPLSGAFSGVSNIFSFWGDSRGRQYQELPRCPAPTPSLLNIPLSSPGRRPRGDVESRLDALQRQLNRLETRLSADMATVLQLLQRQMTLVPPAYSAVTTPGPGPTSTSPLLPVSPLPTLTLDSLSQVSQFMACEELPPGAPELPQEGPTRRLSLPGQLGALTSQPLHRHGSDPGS

[13] = biological target: T4, 5-hydroxytryptamine receptor 1A (Homo sapiens, UniProt P08908); assay: Antagonist activity at human 5-HT1A receptor expressed in HEK293 cells assessed as inhibition of GTPgammaS binding by scintillation proximity assay; assay type: functional, cell-based
T4 sequence (P08908 whole entry): T2 sequence (whole entry)

[14] = biological target: T1, 5-hydroxytryptamine receptor 1B; assay: Intrinsic activity at human 5-HT1B receptor expressed in CHO cells assessed as effect on GTPgammaS binding by scintillation proximity assay relative to 5HT; assay type: functional, cell-based
[15] = biological target: T1, 5-hydroxytryptamine receptor 1B; assay: Agonist activity at human 5-HT1B receptor expressed in CHO cells assessed as stimulation of GTPgammaS binding by scintillation proximity assay; assay type: functional, cell-based
[16] = biological target: T3, 5-hydroxytryptamine receptor 1D; assay: Agonist activity at human 5-HT1D receptor expressed in CHO cells assessed as stimulation of GTPgammaS binding by scintillation proximity assay; assay type: functional, cell-based
[17] = biological target: T4, 5-hydroxytryptamine receptor 1A; assay: Agonist activity at human 5-HT1A receptor expressed in HEK293 cells assessed as stimulation of GTPgammaS binding by scintillation proximity assay; assay type: functional, cell-based

Row | Kp [1] | CL [2] [mL/min/g] | pKi [3] | half-life [4] [h] | bioavailability [5] [%] | pKi [6] | Intrinsic activity [7] | clearance [8] [mL/min/kg] | pKi [9] | Vd [10] [L/kg] | Intrinsic activity [11] | pKi [13] | Intrinsic activity [14] | pEC50 [15] | pEC50 [16] | pEC50 [17] | Compound | pKi [12]
1 | 0.4 | 1.2 | < 6.00 | 1.5 | 31 | 8.40 | 0 | 21 | 8.60 | 2.1 | 0 | 8.90 | – | – | – | – | Cc1ccc2c(N3CCN(CCc4c(C)ccc5c4ccc(=O)n5C)[C@H](C)C3)cccc2n1 | 5.10
2 | – | – | – | – | – | 7.00 | 0 | – | – | – | 0 | 9.00 | 0.4 | 6.30 | – | – | Cc1ccc2c(N3CCN(CCc4c(C)ccc5[nH]c(=O)ccc45)CC3)cccc2n1 | –
3 | – | 1.6 | < 6.00 | 0.7 | 82 | 8.00 | 0 | 46 | 8.70 | 2.4 | 0 | 8.90 | – | – | – | – | Cc1ccc2c(N3CCN(CCc4c(C)ccc5c4ccc(=O)n5C)CC3)cc(F)cc2n1 | 5.60
4 | 0.4 | 1.3 | – | 3 | 83 | 7.60 | 0 | 9 | 9.00 | 2 | 0 | 9.20 | 0.4 | 6.40 | – | – | Cc1ccc2c(N3CCN(CCc4c(C)ccc5c4CCC(=O)N5C)CC3)cccc2n1 | 6.10
5 | – | – | – | – | – | 7.80 | 0 | – | 8.40 | – | 0 | 8.40 | 0.5 | 6.50 | – | – | Cc1ccc2c(N3CCN(CCc4c(Cl)ccc5c4ccc(=O)n5C)CC3)cccc2n1 | –
6 | 0.5 | 1.5 | – | 1.1 | 88 | 7.90 | 0 | 28 | 8.70 | 2.3 | 0 | 9.20 | 0.4 | 7.20 | – | – | Cc1ccc2c(N3CCN(CCc4c(C)ccc5c4ccc(=O)n5C)CC3)cccc2n1 | 5.40
7 | – | – | 7.50 | – | – | 7.90 | 0 | – | 9.40 | – | 0 | 9.40 | 0 | – | – | – | Cc1ccc2c(N3CCN(CCc4c(F)ccc5c4ccc(=O)n5C)CC3)cccc2n1 | 4.50
8 | 1.1 | 1.2 | 9.10 | 1.3 | 37 | 8.60 | 0.4 | 32 | – | 2.1 | 0.7 | – | 0 | – | 9.00 | 10.50 | Cc1ccc2c(N3CCN(CCc4cccc5c4ccc(=O)n5C)CC3)cccc2n1 | 5.00
9 | – | – | – | – | – | – | 0 | – | – | – | 0 | – | 0 | – | – | – | Cc1ccc2c(N3CCN(CCc4cccc5[nH]c(=O)ccc45)CC3)cccc2n1 | –
10 | 0.8 | < 0.5 | – | 5.4 | 73 | 7.30 | 0.3 | 7 | – | 3 | 0.5 | 9.10 | 0.4 | 6.70 | 8.30 | – | Cc1ccc2c(N3CCN(CCc4c(C)ccc5c4CCC(=O)N5)CC3)cccc2n1 | 5.40
11 | 1.7 | < 0.5 | < 6.00 | 1.2 | 35 | 9.30 | 0 | 46 | 7.70 | 2.7 | 0 | 8.40 | – | – | – | – | Cc1ccc2c(N3CCN(CCc4c(C)ccc5c4ccc(=O)n5C)[C@@H](C)C3)cccc2n1 | 5.80

The next lines start with the molecule.

Row | Compound | Kp [1] | CL [2] [mL/min/g] | pKi [3] | half-life [4] [h] | bioavailability [5] [%] | pKi [6] | Intrinsic activity [7] | clearance [8] [mL/min/kg] | pKi [9] | Vd [10] [L/kg] | Intrinsic activity [11] | pKi [13] | Intrinsic activity [14] | pEC50 [15] | pEC50 [16] | pEC50 [17] | pKi [12]
12 | Cc1ccc2c(C3CCN(CCc4c(C)ccc5c4ccc(=O)n5C)CC3)cccc2n1 | 0.8 | 0.9 | < 6.00 | 1.4 | 82 | 8.90 | 0 | 31 | 7.40 | 3.4 | 0 | 8.90 | – | – | – | – | 5.70
13 | Cc1ccc2c(N3CCN(CCc4cccc5c4CCC(=O)N5C)CC3)cccc2n1 | – | – | 9.10 | – | – | 7.90 | 0 | – | 10.10 | – | 0 | 9.20 | 0 | – | – | – | 5.40
14 | Cc1ccc2c(N3CCN(CCc4cccc5c4CCC(=O)N5)CC3)cccc2n1 | – | – | – | – | – | – | 0 | – | – | – | 0 | – | 0 | – | – | – | –
15 | Cc1ccc2c(N3CCN(CCc4cccc5c4OCC(=O)N5C)CC3)cccc2n1 | – | 2.4 | – | – | – | – | – | – | – | – | – | – | – | – | – | – | –
16 | Cc1ccc2c(N3CCN(CCc4cccc5c4ccc(=O)n5C)[C@@H](C)C3)cccc2n1 | 1.3 | 1.5 | 6.40 | 0.6 | 12 | 8.60 | 0 | 32 | 8.30 | 1.2 | 0 | 8.50 | 0 | – | – | – | 5.30
17 | Cc1ccc2c(N3CCN(CCc4cccc5c4ccc(=O)n5C)[C@@H](C)C3)cc(F)cc2n1 | 1.2 | 0.8 | 6.50 | 1.6 | 34 | 9.30 | 0 | 34 | 8.90 | 2 | 0 | 9.00 | 0 | – | – | – | 5.20
18 | Cc1ccc2c(N3CCN(CCc4c(C)ccc5c4ccc(=O)n5C)[C@@H](C)C3)cc(F)cc2n1 | – | – | < 6.00 | – | – | 9.00 | 0 | – | < 6.00 | – | – | 8.40 | – | – | – | – | –
19 | Cc1ccc2c(N3CCN(CCc4cccc5c4ccc(=O)n5C)[C@H](C)C3)cc(F)cc2n1 | – | – | 9.10 | – | – | 9.30 | 0 | – | 9.90 | – | 0 | 9.00 | 0 | – | – | – | 5.00
20 | Cc1ccc2c(N3CCN(CCc4cccc5c4OCC(=O)N5)CC3)cccc2n1 | – | 1 | – | – | – | – | – | – | – | – | – | – | – | – | – | – | –
21 | Cc1ccc2c(N3CCN(CCc4cccc5c4ccc(=O)n5C)C(C)(C)C3)cccc2n1 | 1.1 | 3.8 | 9.30 | 0.6 | 27 | – | 0.3 | 34 | 9.30 | 0.8 | 0 | 8.80 | – | – | – | – | –
